Results from patent publication US20070086953A1, “Medicinal Aerosol Formulation Products With Improved Chemical Stability” (priority 2004, published 2007).

Assays:
[1] = Stability study of TA 2005 HFA solution formulation in MDI cans, 40° C. and 75% relative humidity; assay type: physicochemical; conditions: three months, mean of two cans
Protocol: A formulation for delivering a nominal dose of 1 μg per actuation of TA 2005 was prepared with the composition as follows:
The formulation (120 actuations/canister, overage of 30 actuations) was filled in aluminium canisters having the internal surface coated with Teflon (two stage pressure filling) and fitted with a metering valve having a 63 μl metering chamber provided with a butyl rubber gasket as described in WO 03/078538 (Bespak) cited above. In particular, the gaskets were made of a bromobutyl rubber made of approximately 97% isobutylene and approximately 3% isoprene and having been polymerised by using an aluminium chloride catalyst and by treating the thus obtained isoprene-isobutylene rubber with bromine.
The same formulation was filled in the same kind of cans fitted with valves provided with EPDM rubber gaskets.
A stability study was carried out storing the formulation in upright and inverted cans at 40° C. and 75% relative humidity.
The stability test in Examples 1 and 2 was carried out both in upright and inverted cans. In inverted position, the formulation is in direct contact with the valve materials for all the duration of the test in order to detect possible chemical interactions with the valve materials that may negatively affect the stability of the active ingredient in the formulation. In upright cans the interactions between the valve materials and the formulation are very limited and so also the possible negative effects on the stability of the active ingredient in the formulation may be unnoticed.

[2] = 4 μg/63 μl, stored upright at 5° C., teflon-coated aluminium canisters, EPDM gaskets, after nine months; cited from earlier work

COc1ccc(C[C@@H](C)NC[C@H](O)c2ccc(O)c3[nH]c(=O)ccc23)cc1.Cl [TA 2005, 8-hydroxy-5-[(1R)-1-hydroxy-2-[[(1R)-2-(4-methoxyphenyl)-1-methylethyl]amino]ethyl]-2(1H)-quinolinone hydrochloride]
percent amount of TA 2005 ([1]; inverted cans, EPDM rubber gaskets): 77% | percent amount of TA 2005 ([1]; inverted cans, bromobutyl rubber gaskets): 97% | percent amount of TA 2005 ([1]; upright cans, EPDM rubber gaskets): 98% | percent amount of TA 2005 ([1]; upright cans, bromobutyl rubber gaskets): 98% | TA 2005 assay [2]: higher than 95%
